# Data taken from patent publication US8247170B2, “Detection of penicillin tolerance in Group B Streptococcus: single nucleotide polymorphisms in penicillin binding protein 4” (priority 2008, dated 2012).
# System: GBS clinical isolates and laboratory strains
# Assay: Macrobroth penicillin tolerance assay
# Type: cell-based, Group B Streptococcus
# Conditions: then 24 h drug-free; for 10xMIC, regrowth O.D.600: Penicillin G 10×MIC90 48 h; for 30xMIC, regrowth O.D.600: Penicillin G 30×MIC90 48 h; for 100xMIC, regrowth O.D.600: Penicillin G 100×MIC90 48 h; for 300xMIC, regrowth O.D.600: Penicillin G 300×MIC90 48 h
# Protocol: Using this modified penicillin tolerance assay, tolerant strains from the GBS clinical isolates can be more efficiently identified. In this macrobroth culture format, 25 ml THB broth GBS cultures (containing clinical isolates) were grown to an early exponential growth phase (˜0.2 OD600). Cell cultures (6 ml) were collected and divided into 4 culture tubes. […] Cell cultures were shaken at 150 rpm in order to maintain cells in suspension for proper growth. Subcultures (1/20 dilution) of cells were put into fresh THB containing […] Penase (i.e., 100 μl of Penase 10,000 U stock into 4 ml THB culture). Subcultures were allowed to grow for 24 hours at 37° C. Cell growth was monitored by OD (see Example 2).
# (I) Bacterial Strains and Culture Conditions. GBS strains A909 (serotype IA), 515 (serotype IA), NEM316 (serotype III), COHI (serotype III), 2603V/R (serotype V) and O90R (non-typable) were used in this study. E. coli Top10 cells were used for the recombination experiments. GBS was cultured in Todd Hewitt broth (THB) or Tryptic Soy 5% sheep blood (TS) media and E. coli in Luria-broth (LB) medium or agar. Antibiotics were used at the following concentrations: for GBS—penicillin G (MIC90 0.06 μg ml^−1), ampicillin (MIC90 0.12 μg ml^−1), vancomycin (MIC90 2 μg ml^−1), cefazolin (MIC90 1 μg ml^−1) and chloramphenicol (5 μg ml^−1); for E. coli—ampicillin (50 μg ml^−1) and chloramphenicol (5 μg ml^−1). Both GBS and E. coli cultures were grown at 37° C. (II) Tolerance Using the MBC:MIC Ratio Method. Three GBS laboratory strains (i.e., A909, NEM316, and O90R) were cultured overnight for 18 h at 37° C. in THB. Subcultures in THB were subsequently grown to exponential phase (OD600˜0.3; i.e. 5×10^5 cfu/ml) at 37° C. Cell cultures were then exposed to different concentrations of antibiotics (Penicillin G, Ampicillin, Cefozolin or Vancomycin). […] Cell cultures were dispersed every 18 h before OD600 was measured to determine the lowest concentration of antibiotic with 90% growth inhibition (MIC90). Antibiotic treated cells (8 μl) from each well were re-suspended into PBS (100 μl) and plated (54 μl) on TS agar plates and allowed to grow for an additional 24 h at 37° C. Cell count was performed to determine the lowest concentration of antibiotic with 90% killing of original inoculums (MBC90). (III) Penicillin Killing and Regrowth Tolerance Assay by Microbroth Dilution. Three GBS laboratory strains (i.e., A909, NEM316, and O90R) were cultured overnight for 18 h at 37° C. in THB. Subcultures in THB were subsequently grown to exponential phase (OD600˜0.3) at 37° C. Cell cultures were then exposed to different concentrations of Penicillin G (Sigma, St. Louis, Mo.). […] Cell cultures were dispersed. A 1:20 dilution of cells was re-plated into new wells containing fresh THB with 500 U Penase (to degrade residual penicillin). Cell cultures were allowed to re-grow for an additional 24 h at 37° C. before the OD600 was measured. (IV) Measuring Cell Viability by Determining ATP Concentration. GBS strains were cultured for 18 h at 37° C. in THB. These cells were inoculated into fresh THB and subsequently allowed to grow to exponential phase (OD600 0.25-0.3) at 37° C. One ml of each culture was centrifuged at 5,000×g for 4 min. The cell pellet was re-suspended in ATP-free water. Cellular ATP was extracted using trichloroacetic acid (TCA) (5%) for 2 min and subsequently neutralized with Tris-EDTA-0.1M NaOAc, pH 7.75 to 10×TCA volume. The initial (in.) cellular ATP concentration ([ATP]) was measured using the ENLITEN (Promega) luciferase based reaction kit. THB cultures were then treated with 100×MIC90 Penicillin G for 22 h. The experimental (exp.) cellular ATP was extracted and the concentration was measured as stated above. Based on the calculations ([ATP] exp.)/([ATP] in./O.D. in.), differences in viability were equated with the change in [ATP]. (V) Measuring Penicillin Induced Lysis. Three GBS laboratory strains (A909, NEM316, and O90R) were cultured for 18 h at 37° C. in THB. […]
compound,measurement,setting,value
CC1(C)S[C@@H]2[C@H](NC(=O)Cc3ccccc3)C(=O)N2[C@H]1C(=O)O [Penicillin G],"10xMIC, regrowth O.D.600",GBS strain 308 (V),−− (“−−” indicates an O.D.600 of 0.001 to 0.099)
same,"30xMIC, regrowth O.D.600",GBS strain 308 (V),−− (“−−” indicates an O.D.600 of 0.001 to 0.099)
same,"100xMIC, regrowth O.D.600",GBS strain 308 (V),−− (“−−” indicates an O.D.600 of 0.001 to 0.099)
same,"300xMIC, regrowth O.D.600",GBS strain 308 (V),−− (“−−” indicates an O.D.600 of 0.001 to 0.099)
same,"10xMIC, regrowth O.D.600",GBS strain 311 (Ib),−− (“−−” indicates an O.D.600 of 0.001 to 0.099)
same,"30xMIC, regrowth O.D.600",GBS strain 311 (Ib),−− (“−−” indicates an O.D.600 of 0.001 to 0.099)
same,"100xMIC, regrowth O.D.600",GBS strain 311 (Ib),+ (“+” indicates an O.D.600 of 0.100 to 0.250)
same,"300xMIC, regrowth O.D.600",GBS strain 311 (Ib),+ (“+” indicates an O.D.600 of 0.100 to 0.250)
same,"10xMIC, regrowth O.D.600",GBS strain 316 (V),−− (“−−” indicates an O.D.600 of 0.001 to 0.099)
same,"30xMIC, regrowth O.D.600",GBS strain 316 (V),−− (“−−” indicates an O.D.600 of 0.001 to 0.099)
same,"100xMIC, regrowth O.D.600",GBS strain 316 (V),−− (“−−” indicates an O.D.600 of 0.001 to 0.099)
same,"300xMIC, regrowth O.D.600",GBS strain 316 (V),−− (“−−” indicates an O.D.600 of 0.001 to 0.099)
same,"10xMIC, regrowth O.D.600",GBS strain 320 (III),+++ (“+++” indicates an O.D.600 of 0.751 to 1.500)
same,"30xMIC, regrowth O.D.600",GBS strain 320 (III),+++ (“+++” indicates an O.D.600 of 0.751 to 1.500)
same,"100xMIC, regrowth O.D.600",GBS strain 320 (III),+++ (“+++” indicates an O.D.600 of 0.751 to 1.500)
same,"300xMIC, regrowth O.D.600",GBS strain 320 (III),+++ (“+++” indicates an O.D.600 of 0.751 to 1.500)
same,"10xMIC, regrowth O.D.600",GBS strain 357 (NT),−− (“−−” indicates an O.D.600 of 0.001 to 0.099)
same,"30xMIC, regrowth O.D.600",GBS strain 357 (NT),−− (“−−” indicates an O.D.600 of 0.001 to 0.099)
same,"100xMIC, regrowth O.D.600",GBS strain 357 (NT),+++ (“+++” indicates an O.D.600 of 0.751 to 1.500)
same,"300xMIC, regrowth O.D.600",GBS strain 357 (NT),++ (“++” indicates an O.D.600 of 0.251 to 0.750)
same,"10xMIC, regrowth O.D.600",GBS strain 359 (V),−− (“−−” indicates an O.D.600 of 0.001 to 0.099)
same,"30xMIC, regrowth O.D.600",GBS strain 359 (V),−− (“−−” indicates an O.D.600 of 0.001 to 0.099)
same,"100xMIC, regrowth O.D.600",GBS strain 359 (V),−− (“−−” indicates an O.D.600 of 0.001 to 0.099)
same,"300xMIC, regrowth O.D.600",GBS strain 359 (V),−− (“−−” indicates an O.D.600 of 0.001 to 0.099)
same,"10xMIC, regrowth O.D.600",GBS strain 367 (V),−− (“−−” indicates an O.D.600 of 0.001 to 0.099)
same,"30xMIC, regrowth O.D.600",GBS strain 367 (V),−− (“−−” indicates an O.D.600 of 0.001 to 0.099)
same,"100xMIC, regrowth O.D.600",GBS strain 367 (V),−− (“−−” indicates an O.D.600 of 0.001 to 0.099)
same,"300xMIC, regrowth O.D.600",GBS strain 367 (V),−− (“−−” indicates an O.D.600 of 0.001 to 0.099)
same,"10xMIC, regrowth O.D.600",GBS strain 377 (V),−− (“−−” indicates an O.D.600 of 0.001 to 0.099)
same,"30xMIC, regrowth O.D.600",GBS strain 377 (V),−− (“−−” indicates an O.D.600 of 0.001 to 0.099)
same,"100xMIC, regrowth O.D.600",GBS strain 377 (V),−− (“−−” indicates an O.D.600 of 0.001 to 0.099)
same,"300xMIC, regrowth O.D.600",GBS strain 377 (V),−− (“−−” indicates an O.D.600 of 0.001 to 0.099)
same,"10xMIC, regrowth O.D.600",GBS strain 378 (NT),−− (“−−” indicates an O.D.600 of 0.001 to 0.099)
same,"30xMIC, regrowth O.D.600",GBS strain 378 (NT),−− (“−−” indicates an O.D.600 of 0.001 to 0.099)
same,"100xMIC, regrowth O.D.600",GBS strain 378 (NT),−− (“−−” indicates an O.D.600 of 0.001 to 0.099)
same,"300xMIC, regrowth O.D.600",GBS strain 378 (NT),−− (“−−” indicates an O.D.600 of 0.001 to 0.099)
same,"10xMIC, regrowth O.D.600",GBS strain 379 (V),−− (“−−” indicates an O.D.600 of 0.001 to 0.099)
same,"30xMIC, regrowth O.D.600",GBS strain 379 (V),−− (“−−” indicates an O.D.600 of 0.001 to 0.099)
same,"100xMIC, regrowth O.D.600",GBS strain 379 (V),−− (“−−” indicates an O.D.600 of 0.001 to 0.099)
same,"300xMIC, regrowth O.D.600",GBS strain 379 (V),−− (“−−” indicates an O.D.600 of 0.001 to 0.099)
same,"10xMIC, regrowth O.D.600",GBS strain 380 (NT),−− (“−−” indicates an O.D.600 of 0.001 to 0.099)
same,"30xMIC, regrowth O.D.600",GBS strain 380 (NT),−− (“−−” indicates an O.D.600 of 0.001 to 0.099)
same,"100xMIC, regrowth O.D.600",GBS strain 380 (NT),+++ (“+++” indicates an O.D.600 of 0.751 to 1.500)
same,"300xMIC, regrowth O.D.600",GBS strain 380 (NT),+ (“+” indicates an O.D.600 of 0.100 to 0.250)
same,"10xMIC, regrowth O.D.600",GBS strain 388 (NT),−− (“−−” indicates an O.D.600 of 0.001 to 0.099)
same,"30xMIC, regrowth O.D.600",GBS strain 388 (NT),−− (“−−” indicates an O.D.600 of 0.001 to 0.099)
same,"100xMIC, regrowth O.D.600",GBS strain 388 (NT),−− (“−−” indicates an O.D.600 of 0.001 to 0.099)
same,"300xMIC, regrowth O.D.600",GBS strain 388 (NT),−− (“−−” indicates an O.D.600 of 0.001 to 0.099)
same,"10xMIC, regrowth O.D.600",GBS strain 389 (Ia),++ (“++” indicates an O.D.600 of 0.251 to 0.750)
same,"30xMIC, regrowth O.D.600",GBS strain 389 (Ia),+++ (“+++” indicates an O.D.600 of 0.751 to 1.500)
same,"100xMIC, regrowth O.D.600",GBS strain 389 (Ia),+++ (“+++” indicates an O.D.600 of 0.751 to 1.500)
same,"300xMIC, regrowth O.D.600",GBS strain 389 (Ia),+++ (“+++” indicates an O.D.600 of 0.751 to 1.500)
same,"10xMIC, regrowth O.D.600",GBS strain 391 (NT),++ (“++” indicates an O.D.600 of 0.251 to 0.750)
same,"30xMIC, regrowth O.D.600",GBS strain 391 (NT),++ (“++” indicates an O.D.600 of 0.251 to 0.750)
same,"100xMIC, regrowth O.D.600",GBS strain 391 (NT),++ (“++” indicates an O.D.600 of 0.251 to 0.750)
same,"300xMIC, regrowth O.D.600",GBS strain 391 (NT),++ (“++” indicates an O.D.600 of 0.251 to 0.750)
same,"10xMIC, regrowth O.D.600",GBS strain 399 (V),−− (“−−” indicates an O.D.600 of 0.001 to 0.099)
same,"30xMIC, regrowth O.D.600",GBS strain 399 (V),+ (“+” indicates an O.D.600 of 0.100 to 0.250)
same,"100xMIC, regrowth O.D.600",GBS strain 399 (V),+ (“+” indicates an O.D.600 of 0.100 to 0.250)
same,"300xMIC, regrowth O.D.600",GBS strain 399 (V),+ (“+” indicates an O.D.600 of 0.100 to 0.250)
